Results from patent US10280205B2, “Method for treating cancer with an activated T lymphocyte that selectively recognizes a cancer cell consisting of specific peptide” (immatics biotechnologies GmbH, priority 2015, dated 2019).

What was measured:
HLA-A*02:01 = HLA-A*02:01 (Homo sapiens, UniProt P04439, D140Y/D185E/D98H/E176V/E277Q/G131W/G231S/I119V/I121R/I166T/I218V/L300P/L318F/N151K/N90K/P208A/P217A/Q86G/Q94H/R138H/R169H/T345S); experiment: MHC binding assay: UV-ligand exchange with beta2m ELISA (exchange yield); details: binding to HLA-A*02:01, β2m ELISA
Summary of the method: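 Peptide–HLA-A*02:01 complexes formed by UV-induced exchange of a photocleavable ligand for the test peptide. Exchange products diluted 100-fold and captured on streptavidin-coated plates. Stabilized complexes detected with HRP anti-β2m (1 h, 37° C.) and TMB, A450; exchange yield reported.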

CD8+ T cells = experiment: In vitro T-cell priming assay with aAPCs loaded with peptide/MHC complexes and anti-CD28, multimer staining readout (in vitro immunogenicity); type: cell-based, human; details: for Wells positive [%]: HLA-A*02 restricted peptides
Description: In order to obtain information regarding the immunogenicity of the TUMAPs of the present invention, the inventors performed investigations using an in vitro T-cell priming assay based on repeated stimulations of CD8+ T cells with artificial antigen presenting cells (aAPCs) loaded with peptide/MHC complexes and anti-CD28 antibody.
In order to perform in vitro stimulations by artificial antigen presenting cells loaded with peptide-MHC complex (pMHC) and anti-CD28 antibody, the inventors first isolated CD8+ T cells from fresh HLA-A*02 leukapheresis products via positive selection using CD8 microbeads (Miltenyi Biotec, Bergisch-Gladbach, Germany) of healthy donors obtained from the University clinics Mannheim, Germany, after informed consent.
PBMCs and isolated CD8+ lymphocytes were incubated in T-cell medium (TCM) until use consisting of RPMI-Glutamax (Invitrogen, Karlsruhe, Germany) supplemented with 10% heat inactivated human AB serum (PAN-Biotech, Aidenbach, Germany), 100 U/ml Penicillin/100 μg/ml Streptomycin (Cambrex, Cologne, Germany), 1 mM sodium pyruvate (CC Pro, Oberdorla, Germany), 20 μg/ml Gentamycin (Cambrex). 2.5 ng/ml IL-7 (PromoCell, Heidelberg, Germany) and 10 U/ml IL-2 (Novartis Pharma, Nurnberg, Germany) were also added to the TCM at this step.
Generation of pMHC/anti-CD28 coated beads, T-cell stimulations and readout was performed in a highly defined in vitro system using four different pMHC molecules per stimulation condition and 8 different pMHC molecules per readout condition.
The purified co-stimulatory mouse IgG2a anti human CD28 Ab 9.3 (Jung et al., 1987) was chemically biotinylated using Sulfo-N-hydroxysuccinimidobiotin as recommended by the manufacturer (Perbio, Bonn, Germany). Beads used were 5.6 μm diameter streptavidin coated polystyrene particles (Bangs Laboratories, Illinois, USA).
pMHC used for positive and negative control stimulations were A*0201/MLA-001 (peptide […] (SEQ ID NO. 664) from modified Melan-A/MART-1) and A*0201/DDX5-001 ([…] from DDX5, SEQ ID NO. 665), respectively.
800.000 beads/200 μl were coated in 96-well plates in the presence of 4×12.5 ng different biotin-pMHC, washed and 600 ng biotin anti-CD28 were added subsequently in a volume of 200 μl. Stimulations were initiated in 96-well plates by co-incubating […] CD8+ T cells with 2×10^5 washed coated beads in 200 μl TCM supplemented with 5 ng/ml IL-12 (PromoCell) for 3 days at 37° C. Half of the medium was then exchanged by fresh TCM supplemented with 80 U/ml IL-2 and incubating was continued for 4 days at 37° C. This stimulation cycle was performed for a total of three times. For the pMHC multimer readout using 8 different pMHC molecules per condition, a two-dimensional combinatorial coding approach was used as previously described (Andersen et al., 2012) with minor modifications encompassing coupling to 5 different fluorochromes. Finally, multimeric analyses were performed by staining the cells with Live/dead near IR dye (Invitrogen, Karlsruhe, Germany), CD8-FITC antibody clone SK1 (BD, Heidelberg, Germany) and fluorescent pMHC multimers. For analysis, a BD LSRII SORP cytometer equipped with appropriate lasers and filters was used. Peptide specific cells were calculated as percentage of total CD8+ cells. Evaluation of multimeric analysis was done using the FlowJo software (Tree Star, Oreg., USA). In vitro priming of specific multimer+ CD8+ lymphocytes was detected by comparing to negative control stimulations.
Exemplary flow cytometry results after TUMAP-specific multimer staining for two peptides of the invention are shown in FIG. 3 together with corresponding negative controls.

| Substance | Peptide exchange (MHC class I binding score, peptide exchange yield) (HLA-A*02:01) | Wells positive [%] (CD8+ T cells) | donors (positive donors, in vitro immunogenicity) (CD8+ T cells; HLA class I peptides, percentage of positive donors among evaluable) | wells (positive wells, in vitro immunogenicity) (CD8+ T cells; HLA class I peptides, percentage of positive wells) |
| --- | --- | --- | --- | --- |
| 143 (LLLDITPEI; listed as Homo sapiens) [compound 143] | “++++” (≥75% = ++++) | “+” (<20% = +) | – | – |
| 150 (RLWEEGEELEL; listed as Homo sapiens) [compound 150] | “+++” (≥50 = +++) | “+” (<20% = +) | – | – |
| 166 (YLNHLEPPV; listed as Homo sapiens) [compound 166] | “+++” (≥50 = +++) | “++++” (>=70% = ++++) | – | – |
| 199 (ALQDVPLSSV; listed as Homo sapiens) [compound 199] | “+++” (≥50 = +++) | “+” (<20% = +) | – | – |
| 247 (VLLPNDLLEKV; listed as Homo sapiens) [compound 247] | “+++” (≥50 = +++) | “+” (<20% = +) | – | – |
| 283 (ALYIGDGYVIHLA; listed as Homo sapiens) [compound 283] | “+++” (≥50 = +++) | – | +++ (50%-69% = +++) | + (<20% = +) |
| 319 (SLEPQIQPV; listed as Homo sapiens) [compound 319] | “++” (≥20% = ++) | “+” (<20% = +) | – | – |
| 384 (ILFANPNIFV; listed as Homo sapiens) [compound 384] | “+++” (≥50 = +++) | “+” (<20% = +) | – | – |
| 443 (GLWEIENNPTV; listed as Homo sapiens) [compound 443] | “+++” (≥50 = +++) | “+” (<20% = +) | – | – |
| 460 (AMLEKNYKL; listed as Homo sapiens) [compound 460] | “++++” (≥75% = ++++) | “+” (<20% = +) | – | – |
| 489 (KMWEELPEVV; listed as Homo sapiens) [compound 489] | “+++” (≥50 = +++) | “+” (<20% = +) | – | – |
| 499 (KIFDIDEAEEGV; listed as Homo sapiens) [compound 499] | “++” (≥20% = ++) | “+” (<20% = +) | – | – |
| 511 (FLDPYCSASV; listed as Homo sapiens) [compound 511] | “++” (≥20% = ++) | “+” (<20% = +) | – | – |
| 603 (FLIEPEHVNTV; listed as Homo sapiens) [compound 603] | “++” (≥20% = ++) | “+” (<20% = +) | – | – |
